Results taken from patent US9815851B2, “Pyrrolo carboxamides as modulators of orphan nuclear receptor RAR-related orphan receptor-gamma (RORγ, NR1F3) activity and for the treatment of chronic inflammatory and autoimmune diseases” (PHENEX PHARMACEUTICALS AG, priority 2011, dated 2017).
Where two headings read alike, the source gives them in different places.

Legend:
[1] = target: T1, RORγ ligand binding domain (LBD) (Homo sapiens, UniProt P51449); assay: TR-FRET Activity Assay (ligand sensing, RORγ-LBD / coactivator peptide interaction, LANCE); assay type: biochemical
T1 construct: made in house; host or cells: E. coli BL-21 (BL3), vector pDEST15
T1 sequence (P51449 269-508 limits assumed): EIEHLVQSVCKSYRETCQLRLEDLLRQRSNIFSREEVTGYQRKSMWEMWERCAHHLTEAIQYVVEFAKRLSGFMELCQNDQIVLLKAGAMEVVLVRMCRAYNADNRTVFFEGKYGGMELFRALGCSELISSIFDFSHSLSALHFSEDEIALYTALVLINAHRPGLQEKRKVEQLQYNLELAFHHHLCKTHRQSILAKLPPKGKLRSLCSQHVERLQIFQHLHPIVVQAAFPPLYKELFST

RORγ = target: T2, RORγ (UniProt P51449); assay: RORγ Gal4 Reporter Gene Assay in 293T cells (firefly and renilla luciferase); assay type: cell-based, human
T2 sequence (P51449 1-518): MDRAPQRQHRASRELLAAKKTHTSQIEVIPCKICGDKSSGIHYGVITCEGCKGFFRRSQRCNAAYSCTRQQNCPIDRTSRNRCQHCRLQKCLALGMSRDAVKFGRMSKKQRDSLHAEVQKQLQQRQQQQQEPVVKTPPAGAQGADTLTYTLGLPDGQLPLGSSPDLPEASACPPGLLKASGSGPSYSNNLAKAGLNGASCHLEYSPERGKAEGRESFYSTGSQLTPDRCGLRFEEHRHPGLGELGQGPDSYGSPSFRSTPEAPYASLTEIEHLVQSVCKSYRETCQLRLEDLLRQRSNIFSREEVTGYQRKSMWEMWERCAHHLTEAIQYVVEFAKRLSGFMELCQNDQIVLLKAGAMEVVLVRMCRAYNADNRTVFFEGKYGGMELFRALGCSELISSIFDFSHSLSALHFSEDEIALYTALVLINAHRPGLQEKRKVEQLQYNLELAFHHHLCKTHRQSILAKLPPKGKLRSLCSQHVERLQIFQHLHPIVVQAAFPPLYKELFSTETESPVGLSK

[2] = first value of the cell FRET/FF/REN, TR-FRET activity assay, read-out: pIC50 (FRET) (converted)
[3] = second value of the cell, Gal4 reporter gene assay in 293T cells, firefly luciferase
[4] = third value of the cell, Gal4 reporter gene assay in 293T cells, renilla normalised luciferase

Structure (SMILES)	IC50 [1, 2]	pIC50 (FF) (RORγ; [3])	pIC50 (REN) (RORγ; [4])	IC50 [1]	pIC50 (FF) (RORγ)	pIC50 (REN) (RORγ)
Cc1c(C(=O)NCC(C)(C)C(N)=O)cc(-c2ccc(S(=O)(=O)NC(C)(C)C)c(C(F)F)c2)n1CC1CCCCC1 [17/128]	200 nM	8.0	8.0			
Cc1c(C(=O)NCC2(O)CCOCC2)cc(-c2ccc(S(=O)(=O)NC(C)(C)C)c(C(F)F)c2)n1CC1CCCCC1 [17/129]				200 nM	6.7/8.0/8.0	6.7/8.0/8.0
Cc1c(C(=O)NCCC(C)(C)C(=O)O)cc(-c2ccc(S(=O)(=O)NC(C)(C)C)c(C(F)F)c2)n1CC1CCCCC1 [17/130]	251 nM	7.5	7.6			
Cc1c(C(=O)NC2CCOCC2)cc(-c2ccc(C(C)(C)C(=O)NC(C)(C)C)c(C(F)(F)F)c2)n1CC1CCCCC1 [17/132]	3980 nM	6.3	6.2			
Cc1c(C(=O)NC2CCOCC2)cc(-c2ccc(S(=O)(=O)NC(C)(C)CC(F)(F)F)c(C(F)(F)F)c2)n1CC1CCCCC1 [17/143]	126 nM	8.2	8.2			
Cc1c(C(=O)N[C@H]2C[C@H](C(=O)O)C2)cc(-c2cc(C(F)(F)F)c3c(c2)C(C)(C)C(=O)N3C)n1CC1CCCCC1 [17/149]	1260 nM	6.6	6.6			
Cc1c(C(=O)NCCC(C)(C)C(=O)O)cc(-c2ccc(S(=O)(=O)N[C@@H](C)C(F)(F)F)c(C(F)(F)F)c2)n1CC1CCCCC1 [17/150]	501 nM	8.0	8.2			
Cc1c(C(=O)NCCC(C)(C)C(=O)O)cc(-c2ccc(S(=O)(=O)N[C@@H](C)C(F)(F)F)c(C(C)(C)C)c2)n1CC1CCCCC1 [17/152]	1000 nM	8.2	8.2			
COC(=O)C(C)(C)CCNC(=O)c1cc(-c2cc(C(C)(C)C)cc(C3(C)CC3)c2)n(CC2CCCCC2)c1C [17/153]	316 nM	6.7	6.7			
COC(=O)[C@H]1C[C@H](NC(=O)c2cc(-c3cc(C(C)(C)C)cc(C4(C)CC4)c3)n(CC3CCCCC3)c2C)C1 [17/154]	316 nM	7.2	7.3			
Cc1c(C(=O)N[C@H]2C[C@H](C(=O)O)C2)cc(-c2cc(C(C)(C)C)cc(C3(O)CC3)c2)n1CC1CCCCC1 [17/155]	631 nM	7.0	7.0			
Cc1c(C(=O)NC2CCOCC2)cc(-c2ccc(S(=O)(=O)NC(C)(C)C)c(C#N)c2)n1CC1CCCCC1 [17/158]	794 nM	6.1	6.2			
Cc1c(C(=O)NC2CCOCC2)cc(-c2cc(NCC(C)(C)C)nc(C(F)(F)F)c2)n1CC1CCCCC1 [17/159]	1580 nM	6.8	6.9			
Cc1c(C(=O)NC2CCOCC2)cc(-c2ccc(S(=O)(=O)NC(C)(C)C(F)(F)F)c(C(F)(F)F)c2)n1CC1CCCCC1 [17/160]				200 nM	6.7/7.8/8.0	6.7/7.8/8.0
Cc1c(C(=O)NCCC(C)(C)C(=O)O)cc(-c2ccc(S(=O)(=O)NC(C)(C)C(F)(F)F)c(C(F)(F)F)c2)n1CC1CCCCC1 [17/161]	631 nM	7.6	7.6			
Cc1c(C(=O)NCC(C)(C)c2noc(=O)[nH]2)cc(-c2cc(C(C)(C)C)cc(C3(C)CC3)c2)n1CC1CCCCC1 [17/162]	794 nM	7.5	7.7			
Cc1c(C(=O)NCCC(C)(C)C(=O)O)cc(-c2ccc(S(=O)(=O)NC(C)(C)C)c(C(C)(C)C)c2)n1CC1CCCCC1 [17/163]	1580 nM	7.0	7.2			
Cc1c(C(=O)NC2CCOCC2)cc(-c2ccc(S(=O)(=O)NC(C)(C)C)c(OCC(C)(C)C)c2)n1CC1CCCCC1 [17/165]				5010 nM	5.3/6.5/6.9	5.3/6.5/6.9
Cc1c(C(=O)NCCC(C)(C)C(=O)O)cc(-c2ccc(S(=O)(=O)NC(C)(C)C)c(OC(F)F)c2)n1CC1CCCCC1 [17/167]	794 nM	6.6	6.8			
CC(C)(C)NS(=O)(=O)c1ccc(-c2cc(C(=O)NCCC(C)(C)C(=O)O)c(C(N)=O)n2CC2CCCCC2)cc1C(F)(F)F [17/169]	794 nM	6.7	6.7			

Continued, in another order:

IC50 [1, 2]	pIC50 (FF) (RORγ; [3])	pIC50 (REN) (RORγ; [4])	Structure (SMILES)	IC50 [1]	pIC50 (FF) (RORγ)	pIC50 (REN) (RORγ)
501 nM	6.8	6.9	Cc1c(C(=O)NC2CCOCC2)cc(-c2ccc(CC(=O)NC(C)(C)C)c(C(F)(F)F)c2)n1CC1CCCCC1 [17/131]			
1260 nM	6.3	6.3	Cc1c(C(=O)NC2CCOCC2)cc(-c2ccc(S(=O)(=O)NC(C)(C)C)c(C(F)(F)F)c2)n1CC1CC(F)(F)C1 [17/133]			
398 nM	7.4	7.7	Cc1c(C(=O)NCC(C)(C)CC(=O)O)cc(-c2ccc(S(=O)(=O)NC(C)(C)C)c(C(F)(F)F)c2)n1CC1CCCCC1 [17/134]			
631 nM	6.7	6.7	Cc1c(C(=O)NCCC(C)(C)C(N)=O)cc(-c2ccc(S(=O)(=O)NC(C)(C)C)c(C(F)(F)F)c2)n1CC1CCCCC1 [17/135]			
794 nM	6.6	6.7	CNC(=O)C(C)(C)CCNC(=O)c1cc(-c2ccc(S(=O)(=O)NC(C)(C)C)c(C(F)(F)F)c2)n(CC2CCCCC2)c1C [17/136]			
501 nM	< 4.7	< 4.7	Cc1c(C(=O)N2CCOC(C(=O)O)C2)cc(-c2ccc(S(=O)(=O)NC(C)(C)C)c(C(F)(F)F)c2)n1CC1CCCCC1 (stereo not drawn) [17/137]			
200 nM	7.1	7.3	Cc1c(C(=O)N[C@@H]2CCCOC2)cc(-c2ccc(S(=O)(=O)NC(C)(C)C)c(C(F)(F)F)c2)n1CC1CCCCC1 [17/138]			
158 nM	7.2	7.4	Cc1c(C(=O)N[C@H]2CCCOC2)cc(-c2ccc(S(=O)(=O)NC(C)(C)C)c(C(F)(F)F)c2)n1CC1CCCCC1 [17/139]			
200 nM	8.0	8.1	Cc1c(C(=O)NC2CCOCC2)cc(-c2ccc(S(=O)(=O)NCC(F)(F)F)c(C(F)(F)F)c2)n1CC1CCCCC1 [17/140]			
316 nM	8.3	8.5	Cc1c(C(=O)NC2CCOCC2)cc(-c2ccc(S(=O)(=O)N[C@@H](C)C(F)(F)F)c(C(F)(F)F)c2)n1CC1CCCCC1 [17/141]			
398 nM	7.4	7.6	Cc1c(C(=O)NC2CCOCC2)cc(-c2ccc(S(=O)(=O)N[C@H](C)C(F)(F)F)c(C(F)(F)F)c2)n1CC1CCCCC1 [17/142]			
501 nM	7.7	7.7	Cc1c(C(=O)NC2CCOCC2)cc(-c2ccc(S(=O)(=O)NC3(C#N)CC3)c(C(F)(F)F)c2)n1CC1CCCCC1 [17/144]			
631 nM	7.6	7.7	Cc1c(C(=O)NC2CCOCC2)cc(-c2ccc(S(=O)(=O)NC3(C)COC3)c(C(F)(F)F)c2)n1CC1CCCCC1 [17/145]			
1000 nM	7.4	7.5	Cc1c(C(=O)NC2CCOCC2)cc(-c2ccc(S(=O)(=O)NC(C)C(C)(C)O)c(C(F)(F)F)c2)n1CC1CCCCC1 (stereo not drawn) [17/146]			
794 nM	6.7	6.7	Cc1c(C(=O)NC2CCOCC2)cc(-c2ccc(S(=O)(=O)NCC3(C)COC3)c(C(F)(F)F)c2)n1CC1CCCCC1 [17/147]			
794 nM	7.0	7.0	Cc1c(C(=O)NC2CCOCC2)cc(-c2cc(C(F)(F)F)c3c(c2)C(C)(C)C(=O)N3C)n1CC1CCCCC1 [17/148]			
316 nM	8.3	8.3	Cc1c(C(=O)NC2CCOCC2)cc(-c2ccc(S(=O)(=O)N[C@@H](C)C(F)(F)F)c(C(C)(C)C)c2)n1CC1CCCCC1 [17/151]			
398 nM	7.0	7.1	Cc1c(C(=O)NC2CCOCC2)cc(-c2ccc(S(=O)(=O)NC(C)(C)C)c(Br)c2)n1CC1CCCCC1 [17/157]			
1260 nM	6.4	6.5	COC1(c2cc(-c3cc(C(=O)NC4CCOCC4)c(C)n3CC3CCCCC3)ccc2S(=O)(=O)NC(C)(C)C)CC1 [17/164]			
158 nM	7.8	8.0	Cc1c(C(=O)NC2CCOCC2)cc(-c2ccc(S(=O)(=O)NC(C)(C)C)c(OC(F)(F)F)c2)n1CC1CCCCC1 [17/166]			
